# Reference: publication PMC11783601, “Analogue-Sensitive Inhibition of Histone Demethylases Uncovers Member-Specific Function in Ribosomal Protein Synthesis” (Journal of the American Chemical Society, 2025)
# Experiments:
# NO66 = target: T1, NO66 (Homo sapiens, UniProt Q9H6W3); assay: MALDI-based assay for C14orf169 (NO66) histidyl hydroxylation of peptide; format: biochemical; settings: MALDI-TOF, peptide substrate
# T1 construct: we recombinantly expressed the catalytic domains of 12 wild type dioxygenases; Tev His Flag (C); host or cells: E. coli BL21 (DE3)
# Experimental: MALDI-based assay for C14orf169 (NO66) and MINA: To monitor the enzymatic activity of
# C14orf169 and MINA recombinant proteins, previous methods were utilized.10-11 Briefly, 10 µM
# each recombinant protein was incubated with 10 µM peptide substrate (NH2-
# Ascorbic Acid, 100 µM Iron (II), 50mM HEPES pH 7.5, and 200 µM L-Leu NOG or equivalent
# volume of water in 10 µL water. Aliquots were kept on ice for 10 minutes before addition of 200
# µM 2OG or equivalent volume of water. After 30-60 minutes incubation at 37 °C, 1 µL sample and
# 1 µL S-DHB matrix were spotted on a MALDI plate and monitored with Bruker FlexControl in
# (§1) the reflectron positive mode and analyzed on Bruker FlexAnalysis software. […]
# KDM6B = target: T2, KDM6B (Homo sapiens, UniProt O15054); assay: MALDI-based assay for KDM6B on H3K27me3 peptide; format: biochemical; settings: MALDI-TOF
# T2 construct: The plasmid construct for the catalytic domain of wild type KDM6B; 6xHis (N); made in house; host or cells: E. coli Rosetta [DE3]
# Experimental: (NH4)2Fe(SO4)2, 1 mM L-ascorbic acid, 1 mM NAD+, 200 nM FDH, and 1 µM KDM4A) in varying concentrations (0-10 µM). The experiments were performed in 384-well white Corning plates. The fluorescence intensity was measured with excitation = 340 nm and emission = 490 nm on a TECAN Infinite M1000Pro. Triplicate values were taken for each concentration.
# The set up and analysis for IC50 of L-Leu NOG against KDM4A F185A enzyme was similar to that described in the coupled fluorescence assay section, but adjusted to function as an end point […]
# 2 mM L-ascorbic acid, 1 mM NAD+, 200 nM FDH, 3 µM wild type KDM4A or KDM4A-F185A, and varying concentration of compounds (NOGs 6, 9 and 10) and a substrate cocktail (200 µM 2OG and 60 µM H3K9me3 peptide). Different concentrations of NOG 6 were measured at one […]
# For 9 and 10, the same set-up remained, but enzymatic activity was measured via MALDI-TOF analysis, and relative activity and inhibition was calculated for different NOG concentrations as described above. […]
# equivalent volume of water in 10 µL aliquots. […] The sample was ionized with Bruker FlexControl in the reflectron positive mode and analyzed on Bruker FlexAnalysis software. The percent demethylated peptide was calculated by first multiplying the K27me1 peak by 2 and the K27me0 peak by 3 to account for the multiple […]
# as §1
# wild type 2OG enzymes = assay: Off-target activity across wild type 2OG enzymes (MALDI-MS or dot blots); format: biochemical, human; settings: concentrations up to 200 μM
# Source text: We sought to examine the orthogonality of compound 6 across the human 2OG enzyme family. […] These amino acids, bulky and hydrophobic in nature, likely act as the gatekeeper and preclude binding of the NOG analogues to wild type enzymes. To test the off-target activity of 6, we recombinantly expressed the catalytic domains of 12 wild type dioxygenases, in addition to KDM4A-E, thus covering 30–40% of human 2OG enzymes known to have well-characterized substrates (Figure 3D).
# ALKBH2 = target: T3, ALKBH2 (Homo sapiens, UniProt Q6NS38); assay: Dot blot-based assay for ALKBH2 on genomic DNA; format: biochemical; settings: genomic DNA from HEK293T cells, 6 (µM): 100
# T3 construct: we recombinantly expressed the catalytic domains of 12 wild type dioxygenases; 6xHis (N); made in house; host or cells: E. coli BL21 (DE3)
# T3 sequence (Q6NS38 152-257 limits assumed): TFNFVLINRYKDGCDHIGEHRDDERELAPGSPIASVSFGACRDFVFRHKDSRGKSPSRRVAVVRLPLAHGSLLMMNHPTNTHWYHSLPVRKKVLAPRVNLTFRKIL
# T2 sequence (O15054 1339-1502 limits assumed): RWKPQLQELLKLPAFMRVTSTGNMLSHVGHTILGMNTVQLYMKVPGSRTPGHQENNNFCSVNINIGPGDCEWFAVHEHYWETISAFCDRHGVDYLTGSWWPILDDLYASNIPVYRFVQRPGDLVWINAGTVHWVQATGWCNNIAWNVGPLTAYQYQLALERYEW
# T1 sequence (Q9H6W3 294-439 limits assumed): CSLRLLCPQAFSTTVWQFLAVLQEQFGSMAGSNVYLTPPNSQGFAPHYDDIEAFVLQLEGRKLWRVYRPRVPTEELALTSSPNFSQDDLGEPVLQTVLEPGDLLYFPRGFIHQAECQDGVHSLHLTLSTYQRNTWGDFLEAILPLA
smiles,measurement,setting,value
"CC(C)CC(NC(=O)C(=O)O)C(=O)O (stereo not shown) [compound 6, N-oxalyl leucine]",inhibition of NO66,NO66,No inhibition
same,inhibition of KDM6B,KDM6B,No inhibition
same,inhibition of wild type 2OG enzymes,wild type 2OG enzymes,did not inhibit
same,inhibition of ALKBH2,ALKBH2,No inhibition
